{
  "source": "paper PMC12817916",
  "about": "“A small-molecule HSP90 inhibitor, NVP-HSP990, alleviates rotavirus infection” (Journal of Virology, 2025)",
  "key": {"[1]": {"test": "Cytotoxicity assay (CCK-8)", "type": "cell-based, Rhesus monkey", "conditions": "rhesus monkey", "description": "(§1) To evaluate the cytotoxicity of different HSP90 inhibitors in vitro, 10,000 MA104 cells, 30,000 Caco-2 cells, and 80,000 HT-29 cells in 100 µL complete DMEM medium were seeded in 96-well plates and cultured at 37°C and 5% CO2 for 24 h to reach about 100% confluence, and a cell-free control was also set. After removing the initial medium, 100 µL of complete DMEM medium containing the indicated concentrations of drugs was added to each well, and the plates were incubated at 37°C and 5% CO2. Twenty-four hours later, the drug-containing medium was replaced with 100 µL fresh complete DMEM medium plus 10 µL 5 mM CCK-8 reagent (Beyotime, China), and OD450 absorbance of each well was detected 3 h later using a microplate reader (Gene Company Limited, China). Relative cell viability rate = OD450 (drug-treated cells − cell-free control) / OD450 (0 µM drug-treated cells − cell-free control).\n(§2) The 50% cytotoxic concentration (CC50) values were determined by nonlinear regression (curve fit) analysis in GraphPad Prism 9.0 (GraphPad Software). Dose-response data (drug concentrations as X-axis and normalized cell viability percentages as Y-axis) were fitted to a Dose-response Inhibition model (\"[Inhibitor] vs. normalized response-Variable slope\"). The curve was constrained to a bottom limit of 0% viability. The CC50 value was automatically calculated as the X-intercept at Y=50%. Model adequacy was validated using goodness-of-fit metrics (R²≥0.95), 95% confidence intervals, and residual distribution analysis. Final CC50 values were derived from three independent biological replicates and reported as mean ± SEM."}, "MA104 cells": {"system": "MA104 cells", "test": "Cytotoxicity assay (CCK-8)", "type": "cell-based, Rhesus monkey", "conditions": "24 h", "description": "as §1, §2"}, "[2]": {"test": "Cytotoxicity assay (CCK-8)", "type": "cell-based, Human", "conditions": "human", "description": "as §1, §2"}, "Caco-2 cells": {"system": "Caco-2 cells", "test": "Cytotoxicity assay (CCK-8)", "type": "cell-based, Human", "conditions": "24 h", "description": "as §1, §2"}, "HT-29 cells": {"system": "HT-29 cells", "test": "Cytotoxicity assay (CCK-8)", "type": "cell-based, Human", "conditions": "24 h", "description": "as §1, §2"}, "RV SA11 (G3P[2]) strain": {"system": "RV SA11 (G3P[2]) strain", "test": "In vitro assay of RV replication inhibition (PFA)", "type": "cell-based, Rotavirus", "conditions": "Rotavirus", "description": "(§3) For analysis of effects of different […] on RV replication in vitro, 10,000 MA104 cells, 30,000 Caco-2 cells, and 80,000 HT-29 cells in 100 µL complete DMEM medium were seeded in 96-well plates and cultured at 37°C and 5% CO2 for 24 h. Then the cells were infected with RV Wa or SA11 strains (MOI = 1 (PFU/cell)) for 1 h. After removing the viruses and washing cells two times with DMEM, 100 µL DMEM containing the indicated concentrations of drugs was added to each well, and the plates were incubated at 37°C and 5% CO2. At 24 h p.i., the infected cells and culture medium were collected, frozen/thawed twice, and subjected to centrifugation at 1,000 × g for 3 min at room temperature. Then, the supernatant was subjected to analysis of viral load by PFA. […] Dose-response data (drug concentrations as x-axis and normalized inhibition percentages as y-axis) were fitted to a dose-response inhibition model ([Inhibitor] vs normalized response – Variable slope). […] Model adequacy was validated using goodness-of-fit metrics (R^2 ≥ 0.95), 95% confidence intervals, and residual distribution analysis.\n(§4) Wa/SA11 strains were titrated by PFA, which was carried out as described (3) with some modification. Briefly, confluent monolayers of MA104 cells in 24-well tissue culture plates were infected with 100 µL supernatants containing infectious RV particles which were serially diluted (10^1, 10^2, 10^3, and 10^4) with DMEM containing 1 µg/mL trypsin and penicillin (10,000 U/mL)-streptomycin (5 µg/mL) (DMEM-T) for 1 h at 37°C. Then 400 µL agarose overlay (0.8% agarose in 1×DMEM-T) was added and the plates were incubated at 37℃ and 5% CO2 for 5 days. The cells in each well were fixed by 1 mL 4% paraformaldehyde (Sangon Biotech, China) overnight (> 12 h) at room temperature. Then, the paraformaldehyde and agarose were removed and the monolayers were stained with 0.5 ml of a 1% (v/v) crystal violet (Sangon Biotech, China) diluted in distilled water for 10 min at room temperature. Then, the plates were drained and dried, and the plaques were enumerated. As the EDIM strain is not able to grow in cell culture, it was titrated by qPCR analysis as described (4) with EDIM VP6 gene as the target."}, "RV Wa (G1P[8]) strain": {"system": "RV Wa (G1P[8]) strain", "test": "In vitro assay of RV replication inhibition (PFA)", "type": "cell-based, Rotavirus", "conditions": "Rotavirus", "description": "as §3, §4"}, "[3]": {"conditions": "Caco-2, 24 h, read-out: IC50 (Fig 1B plot)"}, "[4]": {"conditions": "HT-29, 24 h, read-out: IC50 (Fig 1B plot)"}, "[5]": {"conditions": "MA104, 24 h, read-out: IC50 (Fig 1B plot)"}},
  "note": "Like-named read-outs stand apart in the source and are kept apart here.",
  "data": [
    {"smiles": "COC1=C2C[C@@H](C)C[C@H](OC)[C@H](O)[C@@H](C)/C=C(\\C)[C@H](OC(N)=O)[C@@H](OC)/C=C\\C=C(/C)C(=O)NC(=CC1=O)C2=O", "note": "[GA, geldanamycin]", "values": [
      {"measurement": "CC50 at 24 h", "setting": "[1]; CC50", "result": "< 40000", "unit": "nM"},
      {"measurement": "CC50", "setting": "MA104 cells; rhesus monkey", "result": "26600 ± 5550", "unit": "nM"},
      {"measurement": "CC50 at 24 h", "setting": "[2]; CC50", "result": "< 40000", "unit": "nM"},
      {"measurement": "CC50", "setting": "Caco-2 cells; human", "result": "20000 ± 3070", "unit": "nM"},
      {"measurement": "CC50", "setting": "HT-29 cells; human", "result": "29200 ± 5060", "unit": "nM"},
      {"measurement": "IC50", "setting": "RV SA11 (G3P[2]) strain; SA11 strain in Caco-2 cells, MOI = 1, 24 h p.i., PFA, read-out: IC50", "result": "83.8 ± 20.6", "unit": "nM"},
      {"measurement": "IC50", "setting": "RV SA11 (G3P[2]) strain; SA11 strain in Caco-2 cells, representative experiment, 24 h, PFA, read-out: IC50 (Fig 1B plot)", "result": 83.7, "unit": "nM"},
      {"measurement": "IC50", "setting": "RV SA11 (G3P[2]) strain; SA11 strain in HT-29 cells, MOI = 1, 24 h p.i., PFA, read-out: IC50", "result": "48.2 ± 34.8", "unit": "nM"},
      {"measurement": "IC50", "setting": "RV SA11 (G3P[2]) strain; SA11 strain in HT-29 cells, representative experiment, 24 h, PFA, read-out: IC50 (Fig 1B plot)", "result": 41.6, "unit": "nM"},
      {"measurement": "IC50", "setting": "RV SA11 (G3P[2]) strain; SA11 strain in MA104 cells, MOI = 1, 24 h p.i., PFA, read-out: IC50", "result": "3.01 ± 0.77", "unit": "nM"},
      {"measurement": "IC50", "setting": "RV SA11 (G3P[2]) strain; SA11 strain in MA104 cells, representative experiment, 24 h, PFA, read-out: IC50 (Fig 1B plot)", "result": 2.94, "unit": "nM"},
      {"measurement": "IC50", "setting": "RV Wa (G1P[8]) strain; Wa strain in Caco-2 cells, MOI = 1, 24 h p.i., PFA, read-out: IC50", "result": "91.7 ± 6.95", "unit": "nM"},
      {"measurement": "IC50", "setting": "RV Wa (G1P[8]) strain; Wa strain in Caco-2 cells, representative experiment, 24 h, PFA, read-out: IC50 (Fig 1B plot)", "result": 92, "unit": "nM"},
      {"measurement": "IC50", "setting": "RV Wa (G1P[8]) strain; Wa strain in HT-29 cells, MOI = 1, 24 h p.i., PFA, read-out: IC50", "result": "16.5 ± 4.41", "unit": "nM"},
      {"measurement": "IC50", "setting": "RV Wa (G1P[8]) strain; Wa strain in HT-29 cells, representative experiment, 24 h, PFA, read-out: IC50 (Fig 1B plot)", "result": 16.1, "unit": "nM"},
      {"measurement": "IC50", "setting": "RV Wa (G1P[8]) strain; Wa strain in MA104 cells, MOI = 1, 24 h p.i., PFA, read-out: IC50", "result": "10.5 ± 3.57", "unit": "nM"},
      {"measurement": "IC50", "setting": "RV Wa (G1P[8]) strain; Wa strain in MA104 cells, representative experiment, 24 h, PFA, read-out: IC50 (Fig 1B plot)", "result": 10.1, "unit": "nM"}
    ]},
    {"smiles": "C=CCNC1=C2C[C@@H](C)C[C@H](OC)[C@H](O)[C@@H](C)/C=C(\\C)[C@H](OC(N)=O)[C@@H](OC)/C=C\\C=C(/C)C(=O)NC(=CC1=O)C2=O", "note": "[17-AAG, 17-allylamino-17-demethoxygeldanamycin]", "values": [
      {"measurement": "CC50 at 24 h", "setting": "[1]; MA104 cells, 24 h, CCK-8, read-out: CC50", "result": "< 40000", "unit": "nM"},
      {"measurement": "CC50", "setting": "MA104 cells; MA104 cells, CCK-8, read-out: CC50", "result": "23300 ± 6720", "unit": "nM"},
      {"measurement": "CC50 at 24 h", "setting": "[2]; Caco-2 cells, CCK-8", "result": "< 40000", "unit": "nM"},
      {"measurement": "CC50 at 24 h", "setting": "[2]; HT-29 cells, 24 h, CCK-8, read-out: CC50", "result": "< 40000", "unit": "nM"},
      {"measurement": "CC50", "setting": "Caco-2 cells; Caco-2 cells, CCK-8, read-out: CC50", "result": "28600 ± 9730", "unit": "nM"},
      {"measurement": "CC50", "setting": "HT-29 cells; HT-29 cells, CCK-8, read-out: CC50", "result": "20700 ± 6030", "unit": "nM"},
      {"measurement": "IC50", "setting": "RV SA11 (G3P[2]) strain; Caco-2, 24 h", "result": "116 ± 33.3", "unit": "nM"},
      {"measurement": "IC50", "setting": "RV SA11 (G3P[2]) strain; [3]", "result": 113, "unit": "nM"},
      {"measurement": "IC50", "setting": "RV SA11 (G3P[2]) strain; HT-29, 24 h", "result": "54 ± 7.14", "unit": "nM"},
      {"measurement": "IC50", "setting": "RV SA11 (G3P[2]) strain; [4]", "result": 53.9, "unit": "nM"},
      {"measurement": "IC50", "setting": "RV SA11 (G3P[2]) strain; MA104, 24 h", "result": "3.52 ± 0.6", "unit": "nM"},
      {"measurement": "IC50", "setting": "RV SA11 (G3P[2]) strain; [5]", "result": 3.51, "unit": "nM"},
      {"measurement": "IC50", "setting": "RV Wa (G1P[8]) strain; Caco-2, 24 h", "result": "162 ± 34.2", "unit": "nM"},
      {"measurement": "IC50", "setting": "RV Wa (G1P[8]) strain; [3]", "result": 172, "unit": "nM"},
      {"measurement": "IC50", "setting": "RV Wa (G1P[8]) strain; HT-29, 24 h", "result": "26.4 ± 20.5", "unit": "nM"},
      {"measurement": "IC50", "setting": "RV Wa (G1P[8]) strain; [4]", "result": 21.9, "unit": "nM"},
      {"measurement": "IC50", "setting": "RV Wa (G1P[8]) strain; MA104, 24 h", "result": "6.81 ± 2.18", "unit": "nM"},
      {"measurement": "IC50", "setting": "RV Wa (G1P[8]) strain; [5]", "result": 6.58, "unit": "nM"}
    ]}
  ]
}
